Test results as given in US20220265629A1, “TREATMENT OF SYSTOLIC DYSFUNCTION AND HEART FAILURE WITH REDUCED EJECTION FRACTION WITH THE COMPOUND (R)-4-(1-((3-(DIFLUOROMETHYL)-1-METHYL-1H-PYRAZOL-4-YL)SULFONYL)-1-FLUOROETHYL)-N-(ISOXAZOL-3-YL)PIPERIDINE-1-CARBOXAMIDE” (MyoKardia, Inc., priority 2019, published 2022).
Where two headings read alike, the source gives them in different places.

Assay: HFrEF study Part 1 (SAD Cohorts 1 and 2): plasma pharmacokinetics
Format: in vivo, human
Conditions: for Cmax / Tmax / AUC(0-t) / AUC(0-inf) / half-life: human, plasma, oral; for AUC(0-t): read-out: AUC0-24; for Plasma concentration, Mean / Plasma concentration, Median: pooled SAD Cohorts 1 and 2
Description: Part 1 was a randomized, crossover, DB, placebo-controlled, two-cohort, sequential ascending (oral) single-close study in ambulatory patients with heart failure. All patients received placebo and 2 or 3 active doses of Compound I. Each patient underwent sequential, single-close treatment events separated by no fewer than 5 days and no more than 14 days. Patients in Cohort 1 may also return for a fourth dosing period (open label) after the SRC reviews available data and recommends the close. Patients enrolled prior to the implementation of Amendment 1 may be offered the opportunity to return for the open-label period. Patients in Cohort 2 participated in 2 to 4 dosing periods, based on SRC decision. Patients were randomized to one of the different dosing sequences outlined in FIG. 5A. Multiple patients could be closed at the same time or during the same week depending on administrative issues, i.e., capacity and scheduling.
For each dosing period, patients were admitted to the clinical site on Day −1. Patients were assessed for absence of exclusion criteria (e.g., new lab abnormalities and/or conditions that indicate the patient is clinically unstable). They received Compound I or placebo in the morning of Day 1 followed by serial PK and PD assessments, as well as serial safety assessments. Patients were discharged on Day 3 (i.e., ˜48 hours following Day 1 dosing). An additional outpatient plasma PK sample was taken on the morning of Day 4 at 72 hours postclose.
Study medication consisted of Compound I 5 mg tablets, 25 mg tablets, 100 mg tablets, or matching placebo tablets. In Part 1 (SAD), Compound I or placebo was administered after an overnight fast (at least 6 hours), while in Part 2 (MAD), Compound I was administered after a 2 hour fast (Cohort A) or with food (Cohorts B, C, and D). The close was ingested with a minimum of 240 mL of water, but more water was ingested as needed. The entire close was administered over a period of up to 15 minutes. The time of close used to determine future assessments was the time the last tablet was taken. In the cohorts for Part 2 (MAD), a BID regimen was used.
In Part 1 (SAD), patients fasted overnight (approximately 6 hours) through 4 hours postclose. With the exception of the water consumed with the close, water could be ingested until approximately 1 hour prior to dosing and approximately 1 hour after dosing. If closes were split, subjects fasted 6 hours prior to the first half-close. A light, low-fat snack could be consumed 2 hours after the first half-close and a fast continued through 2 hours after the second half-close.
Eight patients with stable heart failure were enrolled and randomized to receive Compound I or placebo at a dose of 175, 350, 525, 450 (split close), or 550 mg (split close) in a crossover study design with four periods (A-D). All patients had heart failure with a nonischemic etiology and a mean Baseline ejection fraction of 43%. All eight subjects received placebo, 175 mg, and 350 mg (in random sequence) during Periods A to C. Six subjects elected to continue into a fourth open-label Period D, and closes received included: 350 mg (n=1), 525 mg (n=2), 450 mg (divided into 2 aliquots; n=1) and 550 mg (divided into 2 aliquots, n=2). The single doses were administered to patients under fasted conditions. The split closes were given four hours apart with patients fasting six hours prior to the first half-close and 2 hours after the second half-close, with a light snack allowed 2 hours after the first half-close. Subsequently, patients underwent extended observation, followed by a washout period. This process was repeated until each patient had received at least three closes (Compound I or placebo).
Four subjects with stable heart failure were enrolled and randomized to receive Compound I or placebo at a dose of 400 mg (split close) or 500 mg (split close) over three periods (A-C). […]

[1] = 175 mg, SAD Cohort 1, 175 mg (n = 8)
[2] = 350 mg, SAD Cohort 1, 350 mg (n = 8)
[3] = 350 mg, SAD Cohort 1, 4th dose 350 mg (n = 1)
[4] = 400 mg, SAD Cohort 2, 400 mg split dose (n = 4)
[5] = 450 mg, SAD Cohort 1, Split dose 450 mg (n = 1)
[6] = 500 mg, SAD Cohort 2, 500 mg split dose (n = 4)
[7] = 525 mg, SAD Cohort 1, 525 mg (n = 2)
[8] = 550 mg, SAD Cohort 1, Split dose 550 mg (n = 2)

SMILES: Cn1cc(S(=O)(=O)[C@@](C)(F)C2CCN(C(=O)Nc3ccon3)CC2)c(C(F)F)n1 [Compound I, (R)-4-(1-((3-(difluoromethyl)-1-methyl-1H-pyrazol-4-yl)sulfonyl)-1-fluoroethyl)-N-(isoxazol-3-yl)piperidine-1-carboxamide]
- AUC0-∞ (SAD Cohort 1, 175 mg (n = 8)): 53,800 h × ng/mL
- AUC0-∞ (SAD Cohort 1, 350 mg (n = 8)): 103,000 h × ng/mL
- AUC0-∞ (SAD Cohort 1, 525 mg (n = 2)): 127,000 h × ng/mL
- Cmax (175 mg, 175 mg single dose, read-out: Cmax, mean (SD)): 1510 ng/mL
- Tmax [1]: 4.93 h
- AUC(0-t) [1]: 27 µg·h/mL
- Cmax (175 mg, SAD Cohort 1, 175 mg (n = 8), read-out: Cmax): 1510 ng/mL
- Cmax (350 mg, 350 mg single dose, read-out: Cmax, mean (SD)): 2760 ng/mL
- Tmax [2]: 6.15 h
- AUC(0-t) [2]: 50.5 µg·h/mL
- Cmax (350 mg, SAD Cohort 1, 350 mg (n = 8), read-out: Cmax): 2760 ng/mL
- Tmax [3]: 4.05 h
- AUC(0-t) [3]: 70.1 µg·h/mL
- Cmax (350 mg, SAD Cohort 1, 4th dose 350 mg (n = 1), read-out: Cmax): 3590 ng/mL
- Tmax [4]: 9 h
- AUC(0-t) [4]: 162 µg·h/mL
- Cmax (400 mg, SAD Cohort 2, 400 mg split dose (n = 4), read-out: Cmax): 5460 ng/mL
- Tmax [5]: 12 h
- AUC(0-t) [5]: 79.2 µg·h/mL
- Cmax (450 mg, SAD Cohort 1, Split dose 450 mg (n = 1), read-out: Cmax): 4420 ng/mL
- Tmax [6]: 8.5 h
- AUC(0-t) [6]: 191 µg·h/mL
- Cmax (500 mg, SAD Cohort 2, 500 mg split dose (n = 4), read-out: Cmax): 5880 ng/mL
- Cmax (525 mg, 525 mg single dose, read-out: Cmax, mean (SD)): 2720 ng/mL
- Tmax [7]: 5.74 h
- AUC(0-t) [7]: 54 µg·h/mL
- Cmax (525 mg, SAD Cohort 1, 525 mg (n = 2), read-out: Cmax): 2720 ng/mL
- Tmax [8]: 8.93 h
- AUC(0-t) [8]: 97.9 µg·h/mL
- Cmax (550 mg, SAD Cohort 1, Split dose 550 mg (n = 2), read-out: Cmax): 5280 ng/mL
- AUC(0-inf) (175 mg single dose, read-out: AUC0-∞, mean (SD)): 53.8 µg·h/mL
- AUC(0-inf) (350 mg single dose, read-out: AUC0-∞, mean (SD)): 103 µg·h/mL
- AUC(0-inf) (525 mg single dose, read-out: AUC0-∞, mean (SD)): 127 µg·h/mL
- half-life (HFrEF patients (Cohort 1), read-out: half-life): 20 to 25 h
- half-life (SAD Cohort 1, 175 mg (n = 8), read-out: t½ (converted)): 22 h
- half-life (SAD Cohort 1, 350 mg (n = 8), read-out: t½ (converted)): 21 h
- half-life (SAD Cohort 1, 525 mg (n = 2), read-out: t½ (converted)): 24.7 h
- AUC(0-inf) (SAD Cohort 1, Split dose 450 mg (n = 1), read-out: AUC0-∞): 235 µg·h/mL
- half-life (SAD Cohort 1, Split dose 450 mg (n = 1), read-out: t½ (converted)): 30.6 h
- AUC(0-inf) (SAD Cohort 1, Split dose 550 mg (n = 2), read-out: AUC0-∞): 213 µg·h/mL
- half-life (SAD Cohort 1, Split dose 550 mg (n = 2), read-out: t½ (converted)): 21.5 h
- AUC(0-inf) (SAD Cohort 2, 400 mg split dose (n = 4), read-out: AUC0-∞): 192 µg·h/mL
- half-life (SAD Cohort 2, 400 mg split dose (n = 4), read-out: t½ (converted)): 24.1 h
- AUC(0-inf) (SAD Cohort 2, 500 mg split dose (n = 4), read-out: AUC0-∞): 231 µg·h/mL
- half-life (SAD Cohort 2, 500 mg split dose (n = 4), read-out: t½ (converted)): 24 h
- Plasma concentration, Mean (group <2000 ng/mL): 1390 ng/mL
- Plasma concentration, Median (group <2000 ng/mL): 1307 ng/mL
- Plasma concentration, Mean (group ≥2000 ng/mL): 3823 ng/mL
- Plasma concentration, Median (group ≥2000 ng/mL): 3795 ng/mL
